{"source": "paper PMC3297008", "about": "“Novel Marine Phenazines as Potential Cancer Chemopreventive and Anti-Inflammatory Agents” (Marine Drugs, 2012)", "key": {"[1]": {"test_system": "NO production in LPS-induced RAW 264.7 cells", "assay": "LPS-induced NO production in RAW 264.7 cells (Griess reagent)", "conditions": "for NO % inhibition (50 µM): LPS-induced RAW 264.7 cells; for inhibition at 50 µM / IC50: Mus musculus; for inhibition at 50 µM: RAW264.7, read-out: NO % inhibition (50 µM), LPS-induced RAW 264.7 cells, 50 µM; for IC50: RAW264.7, read-out: NO IC50", "method": "The amount of nitrite was measured using the Griess reagent to assess the NO production [47, 48]. […] The cells were treated with various concentrations of compounds dissolved in phenol-red free DMEM for 30 min followed by 1 μg/mL of LPS treatment for 24 h. […] The standard curve was created by using known concentrations of sodium nitrite."}, "human COX-2": {"target": "T1, human COX-2 (Homo sapiens, UniProt P35354)", "T1 sequence (P35354 18-604)": "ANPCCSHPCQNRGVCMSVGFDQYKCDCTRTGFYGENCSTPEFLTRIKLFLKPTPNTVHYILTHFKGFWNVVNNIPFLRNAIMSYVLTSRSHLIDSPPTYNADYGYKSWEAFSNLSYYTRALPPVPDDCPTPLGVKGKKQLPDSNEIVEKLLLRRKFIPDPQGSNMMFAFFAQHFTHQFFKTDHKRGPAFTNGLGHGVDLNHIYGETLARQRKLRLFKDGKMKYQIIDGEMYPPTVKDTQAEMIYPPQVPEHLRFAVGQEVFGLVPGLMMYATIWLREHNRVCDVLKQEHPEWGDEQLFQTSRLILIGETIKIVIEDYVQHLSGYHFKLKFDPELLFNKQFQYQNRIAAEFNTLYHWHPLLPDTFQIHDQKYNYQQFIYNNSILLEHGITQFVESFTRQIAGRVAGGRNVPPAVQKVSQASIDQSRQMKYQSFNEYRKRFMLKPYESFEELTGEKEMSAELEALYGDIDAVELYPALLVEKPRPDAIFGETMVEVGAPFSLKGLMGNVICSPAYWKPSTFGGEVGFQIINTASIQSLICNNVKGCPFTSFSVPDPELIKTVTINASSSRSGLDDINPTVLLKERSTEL", "assay": "COX-2 inhibition assay (LC-MS/MS of PGE2)", "format": "biochemical", "conditions": "for IC50: human COX-2; for Selectivity COX-1/COX-2: ratio of the IC50 values (COX-1/COX-2)", "experimental": "Each COX reaction was initiated by adding 20 µL of arachidonic acid in Tris-HCl (pH 8.0) buffer to give a final concentration of 5 µM. The reaction was terminated after 2 min by adding 20 µL of 2.0 M HCl. The surrogate standard PGE2-d4 was added to correct for errors or degradation during sample handling and for variation in injection volume or instrument response during LC-MS/MS. After 30 min, PGE2 and its surrogate standard were extracted from each incubation mixture using 800 µL of hexane/ethyl acetate (50:50, v/v). The organic phase was removed, evaporated to dryness, and reconstituted in 100 µL methanol/water (50:50, v/v) for analysis using LC-MS/MS with an Applied Biosystems AP4000 triple quadrupole mass spectrometer as described previously. The concentration of PGE2 in each sample was measured using LC-MS/MS, and the percent of COX inhibition by each test solution was determined by comparing the amount of PGE2 produced in the experiment with that produced in the negative control incubation. For IC50 value determination, 12 different concentrations of each inhibitor were assayed three times. The IC50 value of each inhibitor toward COX-1 or COX-2 was determined by plotting and analyzing the inhibition curve data using Graph Pad Prism 5 software. The selectivity of each inhibitor was calculated as the ratio of the IC50 values (COX-1/COX-2)."}, "HL-60 cells": {"test_system": "HL-60 cells", "assay": "NIM-DAPI cell cycle analysis / apoptosis of HL-60 cells", "format": "cell-based", "conditions": "24 h incubation, various concentrations", "experimental": "Figure 3 NIM-DAPI cell cycle analysis of HL-60 cells. HL-60 cells (2 × 10^5 cells/well) were treated with different concentrations of the indicated compounds for 24 h. The media were discarded, and 4',6-diamidino-2-phenylindole solution (NIM-DAPI; Beckman Coulter) was added just before the measurement using a Cell Lab Quanta™ SC (Beckman Coulter) flow cytometer. NIM-DAPI-stained cells were analyzed after excitation. […] Results are representative of two experiments in triplicate.\nHL-60 cells (2 × 10^5 cells/well) were treated with samples for 24 h. The media were discarded and nuclear isolation medium (4',6-diamidino-2-phenylindole, NIM-DAPI; Beckman Coulter) was added just before the measurement using a Cell Lab Quanta™ SC (Beckman Coulter) flow cytometer. NIM-DAPI-stained cells were analyzed after excitation.\nHL-60 cells at a concentration of 2 × 10^6 cells/mL were incubated with testing phenazines at different concentrations for 24 h. The cells were fixed with 1% paraformaldehyde in PBS and treated with ethanol to permiabilize the cells. Positive and negative control cells were provided already fixed. The DNA labeling reaction was carried out at 22–24 °C overnight. This assay was run on a Cell Lab Quanta™ SC, Beckman Coulter flow cytometer equipped with a 488 nm Argon laser as the light source. Propidium Iodide (total cellular DNA) and Fluorescein (apoptotic cells) were used. Propidium Iodide (PI) fluoresces at about 623 nm and Fluorescein at 520 nm when excited at 488 nm. Following the manufacturer’s instructions, an APO-BRDU™ Kit (Phoenix Flow Systems, Inc.) with a two color TUNEL (Terminal deoxynucleotide transferase dUTP Nick End Labeling) capability for labeling DNA breaks and total cellular DNA to detect apoptotic cells was used."}, "L1210 cells": {"test_system": "L1210 cells", "design": "method as in PMID 2753825", "conditions": "cited from earlier work"}, "[2]": {"test_system": "PGE2 production in LPS-induced RAW 264.7 cells", "assay": "LPS-induced PGE2 production in RAW 264.7 cells (ELISA)", "format": "cell-based", "conditions": "for IC50: read-out: PGE2 IC50; for inhibition at 50 µM: RAW264.7, read-out: PGE2 % inhibition (50 µM)", "experimental": "RAW 264.7 cells (1 × 10^5 cells/well, 200 µL) were incubated in a 96-well culture plate in the presence of 5% CO2 at 37 °C for 24 h. The medium was changed to non-colored DMEM containing 5% FBS, and the cells were treated with various concentrations of compounds for 30 min followed by 1 μg/mL of LPS treatment for 24 h. Cell media were collected, diluted 18-times and used for measuring PGE2. Nunc-Immuno 96-well plates were coated with secondary antibody (goat anti-mouse IgG) affinity purified (Jackson Immuno Research Laboratories). Aliquots of cell media were added to the immune plate with primary PGE2 monoclonal antibody (Cayman Chemical) and a tracer PGE2-acetylcholinesterase (Cayman Chemical) and incubated overnight at room temperature in the dark. The next day, the wells were aspirated, washed, 200 µL of Elman’s reagent was added in each well, and incubated 2–5 h at 37 °C out of direct light until control wells reach an optical density 0.4–0.5. Gentle rotating/shaking was used to decrease the time required for color development. Absorbance was read at 412 nm. The PGE2 concentration of each sample was calculated from a PGE2 standard curve (PGE2 from Cayman Chemical). The percent inhibition as a function of the inhibitor concentration was graphed to determine the IC50 values (concentration at which there was 50% inhibition)."}, "5-α-reductase [3]": {"test_system": "5-α-reductase", "design": "method as in PMID 2503481", "conditions": "derived from rat prostate; cited from earlier work"}, "5-α-reductase [4]": {"test_system": "5-α-reductase", "design": "method as in PMID 2503481", "conditions": "derived from dog prostate; cited from earlier work"}, "P388 cells": {"test_system": "P388 cells", "design": "method as in PMID 2753825", "conditions": "cited from earlier work"}, "[5]": {"conditions": "Mus musculus, RAW264.7, LPS-induced RAW 264.7 cells"}, "[6]": {"conditions": "Mus musculus, LPS-induced RAW 264.7 cells"}}, "note": "Like-named read-outs stand apart in the source and are kept apart here."}
{"smiles": "CC1=C(Cn2c3cccc(=O)c-3nc3ccccc32)CCC(C)(C)C1", "note": "[Lavanducyanin 3, lavanducyanin]", "values": [{"measurement": "NO % inhibition (50 µM)", "setting": "[1]", "result": "97 ± 0.7", "unit": "%"}, {"measurement": "inhibition at 50 µM", "setting": "[1]", "result": "> 90", "unit": "%"}, {"measurement": "IC50", "setting": "[1]", "result": "8 ± 0.39", "unit": "µM"}, {"measurement": "IC50", "setting": "human COX-2", "result": "34 ± 1.1", "unit": "µM"}, {"measurement": "Selectivity COX-1/COX-2", "setting": "human COX-2", "result": 0.88}, {"measurement": "accumulation of HL-60 cells in subG1 phase (apoptosis)", "setting": "HL-60 cells", "result": "accumulated in the subG1 phase of the cell cycle"}, {"measurement": "growth inhibition of L1210 cells in culture", "setting": "L1210 cells", "result": "strongly inhibits the growth"}, {"measurement": "IC50", "setting": "[2]; [5]", "result": "0.63 ± 0.16", "unit": "µM"}, {"measurement": "inhibition at 50 µM", "setting": "[2]; [6]", "result": "80.6 ± 18.4", "unit": "%"}, {"measurement": "inhibition of 5-α-reductase", "setting": "5-α-reductase [3]", "result": "competitively inhibits"}, {"measurement": "inhibition of 5-α-reductase", "setting": "5-α-reductase [4]", "result": "competitively inhibits"}, {"measurement": "growth inhibition of P388 cells in culture", "setting": "P388 cells", "result": "strongly inhibits the growth"}]}
{"smiles": "CC1=C(Cn2c3ccc(Br)c(=O)c-3nc3ccccc32)CCC(C)(C)C1", "note": "[Phenazine 1]", "values": [{"measurement": "NO % inhibition (50 µM)", "setting": "[1]", "result": "40.1 ± 5", "unit": "%"}, {"measurement": "inhibition at 50 µM", "setting": "[1]", "result": 40, "unit": "%"}, {"measurement": "IC50", "setting": "[1]", "result": "> 48.6", "unit": "µM"}, {"measurement": "IC50", "setting": "human COX-2", "result": "4 ± 0.41", "unit": "µM"}, {"measurement": "enhancement of inhibition of the catalytic activity of COX-2", "setting": "human COX-2; phenazine 1 compared with lavanducyanin", "result": "~10", "unit": "fold"}, {"measurement": "Selectivity COX-1/COX-2", "setting": "human COX-2", "result": 2.75}, {"measurement": "Selectivity COX-1/COX-2", "setting": "human COX-2; listed as phenazine 1", "result": "approximately 3"}, {"measurement": "accumulation of HL-60 cells in subG1 phase (apoptosis)", "setting": "HL-60 cells", "result": "accumulated in the subG1 phase of the cell cycle"}, {"measurement": "IC50", "setting": "[2]; LPS-induced RAW 264.7 cells", "result": "7.15 ± 2.03", "unit": "µM"}, {"measurement": "IC50", "setting": "[2]; [5]", "result": 7.5, "unit": "µM"}, {"measurement": "inhibition at 50 µM", "setting": "[2]; [6]", "result": "72.5 ± 16.3", "unit": "%"}]}
{"smiles": "CC(C)=CCn1c2ccc(Br)c(=O)c-2nc2ccccc21", "note": "[Phenazine 2]", "values": [{"measurement": "NO % inhibition (50 µM)", "setting": "[1]", "result": "98.1 ± 0.5", "unit": "%"}, {"measurement": "inhibition at 50 µM", "setting": "[1]", "result": "> 90", "unit": "%"}, {"measurement": "IC50", "setting": "[1]", "result": "15.1 ± 2.7", "unit": "µM"}, {"measurement": "IC50", "setting": "human COX-2", "result": "7.2 ± 0.13", "unit": "µM"}, {"measurement": "Selectivity COX-1/COX-2", "setting": "human COX-2", "result": 0.78}, {"measurement": "accumulation of HL-60 cells in subG1 phase (apoptosis)", "setting": "HL-60 cells", "result": "accumulated in the subG1 phase of the cell cycle"}, {"measurement": "IC50", "setting": "[2]; [5]", "result": "0.89 ± 0.22", "unit": "µM"}, {"measurement": "inhibition at 50 µM", "setting": "[2]; [6]", "result": "86.9 ± 12.9", "unit": "%"}]}
